From ChEMBL document CHEMBL1201862, “PubChem BioAssay data set” (2004)
Activity calls are given as the source filed them.

Tests used:
[1] = system: HEK293; test: NOD1 signaling inhibitors, primary screen, cell-based, luminescence, uHTS (AID 1578); type: functional; details: Homo sapiens
[2] = system: HEK293; test: cells; type: functional, cell-based; details: Homo sapiens
[3] = system: HEK293; test: cells; type: functional, cell-based; details: Homo sapiens; remark: listed apart in the source
[4] = system: HEK293; test: NOD2 signaling inhibitors in MDP-stimulated cells, cell-based, uHTS, luminescence (AID 2001); type: functional; details: Homo sapiens
[5] = molecular target: T1, RNA-binding protein pos-1 (Caenorhabditis elegans, UniProt G5EF15); test: inhibitors of POS-1/mex-3 RNA binding, dose response, biochemical, fluorescence polarization (AID 1964);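 further: purified POS-1 fused to maltose binding protein made in E. coli; potency of compounds blocking POS-1 binding to fluorescent RNA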
T1 sequence (G5EF15 whole entry): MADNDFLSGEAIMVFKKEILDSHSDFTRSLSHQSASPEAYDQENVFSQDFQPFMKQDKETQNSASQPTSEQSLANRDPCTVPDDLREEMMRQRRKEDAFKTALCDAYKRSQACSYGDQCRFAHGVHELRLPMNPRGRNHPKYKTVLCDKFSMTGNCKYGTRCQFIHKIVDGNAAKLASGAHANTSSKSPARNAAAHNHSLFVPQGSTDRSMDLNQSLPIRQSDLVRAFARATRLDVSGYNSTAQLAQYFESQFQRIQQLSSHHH

[6] = molecular target: T2, Zinc finger protein mex-5 (Caenorhabditis elegans, UniProt Q9XUB2); test: MEX-5/TCR-2 RNA interaction inhibitors, dose response, biochemical, C. elegans, fluorescence polarization (AID 1960)
T2 sequence (Q9XUB2 whole entry): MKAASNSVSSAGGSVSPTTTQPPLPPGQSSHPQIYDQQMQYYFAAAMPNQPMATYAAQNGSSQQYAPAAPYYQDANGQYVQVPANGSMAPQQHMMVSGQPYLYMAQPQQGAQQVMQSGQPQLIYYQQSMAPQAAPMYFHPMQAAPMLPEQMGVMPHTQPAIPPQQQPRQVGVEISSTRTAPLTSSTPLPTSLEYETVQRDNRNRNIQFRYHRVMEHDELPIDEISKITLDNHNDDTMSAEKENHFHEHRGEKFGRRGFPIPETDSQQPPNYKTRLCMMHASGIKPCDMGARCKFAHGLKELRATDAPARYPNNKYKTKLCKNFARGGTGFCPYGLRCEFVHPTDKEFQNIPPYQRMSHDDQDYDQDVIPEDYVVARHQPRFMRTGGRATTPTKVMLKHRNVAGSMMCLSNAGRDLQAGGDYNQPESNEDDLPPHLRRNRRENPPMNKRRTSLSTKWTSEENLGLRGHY

[7] = molecular target: 26S proteasome non-ATPase regulatory subunit 14 (Homo sapiens, UniProt O00487); test: inhibition of proteasome subunit RPN11 – biochemical, fluorescence polarization, uHTS hits, confirmation (AID 602368); type: functional
[8] = molecular target: 72 kDa type IV collagenase (Homo sapiens, UniProt P08253); test: Dose Response validation of uHTS RPN11 inhibitor hits using a MMP-2 Fluorescence assay.; type: functional
[9] = molecular target: Prothrombin (Bos taurus, UniProt P00735); test: thrombin inhibition, dose response, biochemical, fluorescence polarization, uHTS hits (AID 602369); type: functional
[10] = system: Escherichia coli; test: microbe, parasite or virus in culture
[11] = molecular target: DNA (cytosine-5)-methyltransferase 1 (Homo sapiens, UniProt P26358); test: DNMT1 methyltransferase inhibitors, confirmation, biochemical, fluorescent molecular beacon (AID 602386); type: functional
[12] = molecular target: T3, Caspase-6 (Homo sapiens, UniProt P55212); test: human caspase-6 inhibitors, dose response, biochemical, VEID-R110 fluorescence, cherry-pick (AID 720632)
T3 sequence (P55212 whole entry): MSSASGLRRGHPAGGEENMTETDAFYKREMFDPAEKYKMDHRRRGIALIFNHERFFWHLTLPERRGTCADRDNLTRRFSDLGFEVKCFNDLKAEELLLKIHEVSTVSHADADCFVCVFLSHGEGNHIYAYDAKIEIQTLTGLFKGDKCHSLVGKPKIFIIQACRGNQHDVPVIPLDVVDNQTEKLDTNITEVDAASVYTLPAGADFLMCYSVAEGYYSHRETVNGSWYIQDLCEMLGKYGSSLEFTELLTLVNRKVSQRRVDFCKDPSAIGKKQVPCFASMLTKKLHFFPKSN

[13] = molecular target: Melanocortin receptor 4 (Homo sapiens, UniProt P32245); type: functional, cell-based;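 further: Cell-based assay with luminescence read-out, confirmatory dose-response testing for agonist activity of biased ligands at MC4R; human U2OS cells with tagged receptor and beta-arrestin; potency of agonists that increase receptor coupling to beta-arrestin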
[14] = inhibitors of firefly luciferase expression or activity, dose response, H4 neuroglioma cells, luminescence (AID 1990); type: functional, cell-based
[15] = Luminescence Cell-Based Dose Response HTS to Identify Inhibitors of 5'UTR Stem-Loop Driven Prion Protein mRNA Translation in H4 Neuroglioblastoma Cells. [Related pubchem assays: 1827 (Project Summary), 1813 (Primary HTS)]; type: functional
[16] = inhibitors of SNCA 5'UTR-driven reporter translation, confirmation, H4 neuroglioma cells, luminescence (AID 1988); type: functional, cell-based
[17] = cytotoxicity in HEK-293T cells, dose response, cytotoxicity control for TCR NF-kB inhibitor project, luminescence, T-cell screen hits (AID 489026); type: functional, cell-based;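 further: cells exposed to compound about 14 hours before the viability readout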
[18] = molecular target: T4, Heat shock factor protein 1 (Mus musculus, UniProt P38532); test: HSF1 potentiators in luciferase reporter cells, confirmation, cell-based, NIH3T3, luminescence, dose retest (AID 435004); type: functional;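 further: stress induced by proteasome inhibitor MG132 added 30 min after compound; luciferase reporter driven by HSF1 response element in NIH3T3 cells; actives raise luminescence as potentiators of the MG132 stress response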
T4 sequence (P38532 whole entry): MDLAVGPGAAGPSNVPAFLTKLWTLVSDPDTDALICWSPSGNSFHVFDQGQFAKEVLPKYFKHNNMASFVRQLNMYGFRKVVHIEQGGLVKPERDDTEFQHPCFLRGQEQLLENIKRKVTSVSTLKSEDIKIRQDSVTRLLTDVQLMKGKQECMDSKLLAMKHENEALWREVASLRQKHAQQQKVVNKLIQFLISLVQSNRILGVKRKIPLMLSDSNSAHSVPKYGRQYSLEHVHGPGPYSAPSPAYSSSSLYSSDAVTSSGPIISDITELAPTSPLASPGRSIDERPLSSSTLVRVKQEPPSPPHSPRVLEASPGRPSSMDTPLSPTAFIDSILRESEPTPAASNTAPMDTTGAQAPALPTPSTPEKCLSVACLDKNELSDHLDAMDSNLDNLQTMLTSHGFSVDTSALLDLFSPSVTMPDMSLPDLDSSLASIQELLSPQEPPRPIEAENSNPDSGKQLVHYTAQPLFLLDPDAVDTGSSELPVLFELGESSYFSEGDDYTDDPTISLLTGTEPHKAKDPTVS

[19] = system: INS1; test: beta cell apoptosis inhibitors, cytokine rescue, dose response, luminescence, retest (AID 449756); type: functional, cell-based; details: Rattus norvegicus;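 further: cell death triggered by IL-1 beta plus TNF-alpha plus IFN-gamma mixture; protective hits raise ATP signal compared with cytokine alone wells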

Chain of 72 kDa type IV collagenase (P08253 whole entry): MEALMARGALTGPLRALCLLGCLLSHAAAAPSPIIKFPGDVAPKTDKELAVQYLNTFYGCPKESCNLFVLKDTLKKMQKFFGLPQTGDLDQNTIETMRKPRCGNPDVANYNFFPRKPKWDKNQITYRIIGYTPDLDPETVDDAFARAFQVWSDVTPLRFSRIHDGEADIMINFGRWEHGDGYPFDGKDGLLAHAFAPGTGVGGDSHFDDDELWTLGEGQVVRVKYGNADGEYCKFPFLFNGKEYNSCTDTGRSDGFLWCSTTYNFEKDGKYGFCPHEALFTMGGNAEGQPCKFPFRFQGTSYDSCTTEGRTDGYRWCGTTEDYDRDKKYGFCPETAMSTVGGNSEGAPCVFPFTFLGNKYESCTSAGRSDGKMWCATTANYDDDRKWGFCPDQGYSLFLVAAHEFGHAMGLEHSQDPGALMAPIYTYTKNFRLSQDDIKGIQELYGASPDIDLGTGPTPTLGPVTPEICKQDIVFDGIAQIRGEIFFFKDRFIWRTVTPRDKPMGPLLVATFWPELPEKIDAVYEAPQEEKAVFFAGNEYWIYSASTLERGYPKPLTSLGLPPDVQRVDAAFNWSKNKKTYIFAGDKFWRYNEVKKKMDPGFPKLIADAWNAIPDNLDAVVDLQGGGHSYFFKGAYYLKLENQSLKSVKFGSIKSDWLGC
Chain of 26S proteasome non-ATPase regulatory subunit 14 (O00487 whole entry): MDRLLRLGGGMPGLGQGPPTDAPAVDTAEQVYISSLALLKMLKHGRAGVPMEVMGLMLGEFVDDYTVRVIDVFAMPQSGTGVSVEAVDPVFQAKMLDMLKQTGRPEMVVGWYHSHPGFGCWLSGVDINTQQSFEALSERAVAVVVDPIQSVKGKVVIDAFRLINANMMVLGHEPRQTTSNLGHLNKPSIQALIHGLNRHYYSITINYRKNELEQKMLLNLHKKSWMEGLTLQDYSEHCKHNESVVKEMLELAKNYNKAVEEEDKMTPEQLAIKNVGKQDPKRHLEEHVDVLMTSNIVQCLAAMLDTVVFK
Chain of Melanocortin receptor 4 (P32245 whole entry): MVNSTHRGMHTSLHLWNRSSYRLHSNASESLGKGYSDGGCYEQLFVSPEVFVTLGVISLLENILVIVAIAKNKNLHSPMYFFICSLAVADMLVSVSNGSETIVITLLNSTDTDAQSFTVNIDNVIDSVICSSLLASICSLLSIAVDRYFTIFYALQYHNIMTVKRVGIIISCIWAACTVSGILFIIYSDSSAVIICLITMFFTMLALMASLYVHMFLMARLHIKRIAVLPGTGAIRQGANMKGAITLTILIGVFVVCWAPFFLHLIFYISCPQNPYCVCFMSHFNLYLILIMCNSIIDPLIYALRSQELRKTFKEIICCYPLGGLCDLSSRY
Chain of DNA (cytosine-5)-methyltransferase 1 (P26358 whole entry): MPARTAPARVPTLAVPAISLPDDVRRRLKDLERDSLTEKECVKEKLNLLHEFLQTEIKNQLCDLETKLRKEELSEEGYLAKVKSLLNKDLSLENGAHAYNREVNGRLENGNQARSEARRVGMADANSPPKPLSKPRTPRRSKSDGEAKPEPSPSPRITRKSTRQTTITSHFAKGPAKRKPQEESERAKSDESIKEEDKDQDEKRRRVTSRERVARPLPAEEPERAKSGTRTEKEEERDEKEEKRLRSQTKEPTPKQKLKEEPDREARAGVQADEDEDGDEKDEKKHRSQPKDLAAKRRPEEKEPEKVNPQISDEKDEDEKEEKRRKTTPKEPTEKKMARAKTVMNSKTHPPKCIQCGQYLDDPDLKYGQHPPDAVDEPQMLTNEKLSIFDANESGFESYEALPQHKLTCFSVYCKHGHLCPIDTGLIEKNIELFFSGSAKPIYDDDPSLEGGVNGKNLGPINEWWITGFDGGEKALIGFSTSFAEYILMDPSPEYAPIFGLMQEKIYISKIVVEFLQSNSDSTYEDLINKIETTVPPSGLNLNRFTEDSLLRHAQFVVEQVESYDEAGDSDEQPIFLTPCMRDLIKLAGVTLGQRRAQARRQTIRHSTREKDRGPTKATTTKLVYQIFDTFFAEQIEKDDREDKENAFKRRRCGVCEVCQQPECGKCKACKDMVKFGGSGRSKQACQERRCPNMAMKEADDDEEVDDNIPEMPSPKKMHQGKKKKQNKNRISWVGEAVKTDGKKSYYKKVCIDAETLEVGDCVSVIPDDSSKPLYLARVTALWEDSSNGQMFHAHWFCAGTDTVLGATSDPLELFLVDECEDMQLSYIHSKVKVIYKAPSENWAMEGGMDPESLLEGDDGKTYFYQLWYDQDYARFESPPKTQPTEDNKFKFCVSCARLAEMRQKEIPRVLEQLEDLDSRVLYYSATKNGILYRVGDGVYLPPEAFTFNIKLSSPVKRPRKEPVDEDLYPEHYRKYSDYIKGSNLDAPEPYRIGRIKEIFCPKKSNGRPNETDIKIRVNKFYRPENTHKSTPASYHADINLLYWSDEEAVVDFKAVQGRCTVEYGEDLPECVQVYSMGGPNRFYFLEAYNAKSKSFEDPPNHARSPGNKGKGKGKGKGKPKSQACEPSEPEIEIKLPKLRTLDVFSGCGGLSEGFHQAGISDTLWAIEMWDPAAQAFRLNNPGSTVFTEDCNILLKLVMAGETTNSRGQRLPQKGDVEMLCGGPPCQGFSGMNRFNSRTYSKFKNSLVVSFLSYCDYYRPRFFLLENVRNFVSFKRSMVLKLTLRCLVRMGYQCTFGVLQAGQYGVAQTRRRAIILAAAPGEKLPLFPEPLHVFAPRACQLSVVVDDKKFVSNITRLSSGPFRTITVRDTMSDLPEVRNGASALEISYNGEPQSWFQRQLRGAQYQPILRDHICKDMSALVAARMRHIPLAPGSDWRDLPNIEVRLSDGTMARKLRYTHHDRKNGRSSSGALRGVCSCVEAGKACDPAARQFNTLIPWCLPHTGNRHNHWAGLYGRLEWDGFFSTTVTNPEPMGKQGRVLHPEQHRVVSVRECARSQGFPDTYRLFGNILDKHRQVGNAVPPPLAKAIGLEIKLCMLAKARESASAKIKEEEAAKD

CCc1cc(C(=O)NC2CCCN(Cc3ccccc3F)C2)n(C)n1 (configuration not stated)
EC50 [1]: 9.78 µM (active)
IC50 [2]: 16.5 µM (active)
IC50 [3]: > 20 µM (inactive)
IC50 [4]: > 20 µM (inactive)

Cc1cc(C)c2c(=O)[nH]c(=O)n(Cc3ccccc3)c2n1
EC50 [5]: > 300 µM (not active)
EC50 [6]: > 300 µM (not active)
IC50 [7]: 38.4 µM (active)
IC50 [8]: > 100 µM (inactive)
IC50 [9]: 46.6 µM (active)

CC(C)(C)OC(=O)NCC(=O)N1CCC(C(=O)O)CC1
AC50 [10]: 26.6 µM (active)

COc1ccc(S(=O)(=O)N2CCN(C(=O)C3COc4ccccc4O3)CC2)cc1 (configuration not stated)
IC50 [11]: 5.82 µM (active)
AC50 [12]: 0.685 µM (active)

COc1cc(/C=C2/C(=N)N3C(=NC2=O)SN=C3S(C)(=O)=O)ccc1OC(=O)c1ccco1
IC50 [7]: 31.9 µM (active)
IC50 [8]: 94.8 µM (active)
IC50 [9]: 34.4 µM (active)

CC(C)c1ccc(NS(=O)(=O)c2ccc(-n3cccn3)cc2)cc1
EC50 [13]: > 89.2 µM (inactive)

O=[N+]([O-])c1ccc(-c2nc(C(Cl)Cl)c3ccccc3n2)cc1
EC50 [14]: 1.79 µM (active)
EC50 [15]: 0.407 µM (active)
EC50 [16]: 0.336 µM (active)
IC50 [17]: > 80 µM (inactive)
EC50 [18]: > 260 µM (inconclusive)
AC50 [19]: 1.89 µM (active)
